ChEMBL document CHEMBL5257159, “Insights into targeting SARS-CoV-2: design, synthesis, in silico studies and antiviral evaluation of new dimethylxanthine derivatives” (RSC Med Chem, 2023)
The source made the active and inactive calls. The rule behind the calls is not given here.

Legend:
MCF7 = experiment: Cytotoxicity against human MCF7 cells assessed as inhibition of cell growth incubated for 48 hrs by SRB assay; type: functional, cell-based
PC-3 = experiment: Cytotoxicity against human PC-3 cells assessed as inhibition of cell growth incubated for 48 hrs by SRB assay; type: functional, cell-based
SK-MEL-28 = experiment: Cytotoxicity against human SK-MEL-28 cells assessed as inhibition of cell growth incubated for 48 hrs by SRB assay; type: functional, cell-based
A549 = experiment: Cytotoxicity against human A549 cells assessed as inhibition of cell growth incubated for 48 hrs by SRB assay; type: functional, cell-based
NCI-H23 = experiment: Cytotoxicity against human NCI-H23 cells assessed as inhibition of cell growth incubated for 48 hrs by SRB assay; type: functional, cell-based
SR = experiment: Cytotoxicity against human SR cells assessed as inhibition of cell growth incubated for 48 hrs by SRB assay; type: functional, cell-based
HCT-15 = experiment: Cytotoxicity against human HCT-15 cells assessed as inhibition of cell growth incubated for 48 hrs by SRB assay; type: functional, cell-based
SNB-19 = experiment: Cytotoxicity against human SNB-19 cells assessed as inhibition of cell growth incubated for 48 hrs by SRB assay; type: functional, cell-based
CCRF-CEM = experiment: Cytotoxicity against human CCRF-CEM cells assessed as inhibition of cell growth incubated for 48 hrs by SRB assay; type: functional, cell-based
HCT-116 = experiment: Cytotoxicity against human HCT-116 cells assessed as inhibition of cell growth incubated for 48 hrs by SRB assay; type: functional, cell-based
KM12 = experiment: Cytotoxicity against human KM12 cells assessed as inhibition of cell growth incubated for 48 hrs by SRB assay; type: functional, cell-based
SF-268 = experiment: Cytotoxicity against human SF-268 cells assessed as inhibition of cell growth incubated for 48 hrs by SRB assay; type: functional, cell-based
LOX IMVI = experiment: Cytotoxicity against human LOX IMVI cells assessed as inhibition of cell growth incubated for 48 hrs by SRB assay; type: functional, cell-based
UACC-257 = experiment: Cytotoxicity against human UACC-257 cells assessed as inhibition of cell growth incubated for 48 hrs by SRB assay; type: functional, cell-based
HOP-92 = experiment: Cytotoxicity against human HOP-92 cells assessed as inhibition of cell growth incubated for 48 hrs by SRB assay; type: functional, cell-based
Hs578Bst = experiment: Cytotoxicity against human Hs578Bst cells assessed as inhibition of cell growth incubated for 48 hrs by SRB assay; type: functional, cell-based
MDA-MB-435 = experiment: Cytotoxicity against human MDA-MB-435 cells assessed as inhibition of cell growth incubated for 48 hrs by SRB assay; type: functional, cell-based
SK-MEL-5 = experiment: Cytotoxicity against human SK-MEL-5 cells assessed as inhibition of cell growth incubated for 48 hrs by SRB assay; type: functional, cell-based
OVCAR-3 = experiment: Cytotoxicity against human OVCAR-3 cells assessed as inhibition of cell growth incubated for 48 hrs by SRB assay; type: functional, cell-based
SNB-75 = experiment: Cytotoxicity against human SNB-75 cells assessed as inhibition of cell growth incubated for 48 hrs by SRB assay; type: functional, cell-based
SARS-CoV-2 = experiment: Antiviral activity against SARS-CoV-2 NRC-03-nhCoV infected in african green monkey Vero E6 cells assessed as inhibition of virus-induced cytopathic effect measured after 72 hrs by crystal violet staining based assay; type: functional, organism-based; conditions: Severe acute respiratory syndrome coronavirus 2, NRC-03-nhCoV, Vero C1008, 72 h
RXF 393 = experiment: Cytotoxicity against human RXF 393 cells assessed as inhibition of cell growth incubated for 48 hrs by SRB assay; type: functional, cell-based
NCI-H522 = experiment: Cytotoxicity against human NCI-H522 cells assessed as inhibition of cell growth incubated for 48 hrs by SRB assay; type: functional, cell-based
Malme-3M = experiment: Cytotoxicity against human Malme-3M cells assessed as inhibition of cell growth incubated for 48 hrs by SRB assay; type: functional, cell-based
DU-145 = experiment: Cytotoxicity against human DU-145 cells assessed as inhibition of cell growth incubated for 48 hrs by SRB assay; type: functional, cell-based
SK-MEL-2 = experiment: Cytotoxicity against human SK-MEL-2 cells assessed as inhibition of cell growth incubated for 48 hrs by SRB assay; type: functional, cell-based
A498 = experiment: Cytotoxicity against human A498 cells assessed as inhibition of cell growth incubated for 48 hrs by SRB assay; type: functional, cell-based
HOP-62 = experiment: Growth inhibition of human HOP-62 cells incubated for 48 hrs by SRB assay relative to control; type: functional
SF-295 = experiment: Cytotoxicity against human SF-295 cells assessed as inhibition of cell growth incubated for 48 hrs by SRB assay; type: functional, cell-based
OVCAR-4 = experiment: Cytotoxicity against human OVCAR-4 cells assessed as inhibition of cell growth incubated for 48 hrs by SRB assay; type: functional, cell-based
[1] = Selectivity index, ratio of CC50 for african green monkey Vero E6 cells to IC50 for antiviral activity against SARS-CoV-2 NRC-03-nhCoV infected in african green monkey Vero E6 cells; type: toxicity, Vero C1008; conditions: read-out: Ratio CC50/IC50
HL-60(TB) = experiment: Cytotoxicity against human HL-60(TB) cells assessed as inhibition of cell growth incubated for 48 hrs by SRB assay; type: functional, cell-based
NCI-H460 = experiment: Cytotoxicity against human NCI-H460 cells assessed as inhibition of cell growth incubated for 48 hrs by SRB assay; type: functional, cell-based
OVCAR-5 = experiment: Cytotoxicity against human OVCAR-5 cells assessed as inhibition of cell growth incubated for 48 hrs by SRB assay; type: functional, cell-based
T47D = experiment: Cytotoxicity against human T47D cells assessed as inhibition of cell growth incubated for 48 hrs by SRB assay; type: functional, cell-based
NCI-H322M = experiment: Cytotoxicity against human NCI-H322M cells assessed as inhibition of cell growth incubated for 48 hrs by SRB assay; type: functional, cell-based
MDA-MB-468 = experiment: Cytotoxicity against human MDA-MB-468 cells assessed as inhibition of cell growth incubated for 48 hrs by SRB assay; type: functional, cell-based
U-251 = experiment: Cytotoxicity against human U-251 cells assessed as inhibition of cell growth incubated for 48 hrs by SRB assay; type: functional, cell-based
786-0 = experiment: Cytotoxicity against human 786-0 cells assessed as inhibition of cell growth incubated for 48 hrs by SRB assay; type: functional, cell-based
TK-10 = experiment: Cytotoxicity against human TK-10 cells assessed as inhibition of cell growth incubated for 48 hrs by SRB assay; type: functional, cell-based
HCC 2998 = experiment: Cytotoxicity against human HCC 2998 cells assessed as inhibition of cell growth incubated for 48 hrs by SRB assay; type: functional, cell-based
M14 = experiment: Cytotoxicity against human M14 cells assessed as inhibition of cell growth incubated for 48 hrs by SRB assay; type: functional, cell-based
SF-539 = experiment: Cytotoxicity against human SF-539 cells assessed as inhibition of cell growth incubated for 48 hrs by SRB assay; type: functional, cell-based
SW-620 = experiment: Cytotoxicity against human SW620 cells assessed as inhibition of cell growth incubated for 48 hrs by SRB assay; type: functional, cell-based
HT-29 = experiment: Cytotoxicity against human HT-29 cells assessed as inhibition of cell growth incubated for 48 hrs by SRB assay; type: functional, cell-based
NCI/ADR-RES = experiment: Cytotoxicity against human NCI/ADR-RES cells assessed as inhibition of cell growth incubated for 48 hrs by SRB assay; type: functional, cell-based
COLO 205 = experiment: Cytotoxicity against human COLO 205 cells assessed as inhibition of cell growth incubated for 48 hrs by SRB assay; type: functional, cell-based
MDA-MB-231 = experiment: Cytotoxicity against human MDA-MB-231 cells assessed as inhibition of cell growth incubated for 48 hrs by SRB assay; type: functional, cell-based
IGROV-1 = experiment: Cytotoxicity against human IGROV-1 cells assessed as inhibition of cell growth incubated for 48 hrs by SRB assay; type: functional, cell-based
BT-549 = experiment: Cytotoxicity against human BT-549 cells assessed as inhibition of cell growth incubated for 48 hrs by SRB assay; type: functional, cell-based
UO-31 = experiment: Cytotoxicity against human UO-31 cells assessed as inhibition of cell growth incubated for 48 hrs by SRB assay; type: functional, cell-based
CAKI-1 = experiment: Cytotoxicity against human CAKI-1 cells assessed as inhibition of cell growth incubated for 48 hrs by SRB assay; type: functional, cell-based
RPMI-8226 = experiment: Cytotoxicity against human […] cells assessed as inhibition of cell growth incubated for 48 hrs by SRB assay; type: functional, cell-based
SN12C = experiment: Cytotoxicity against human SN12C cells assessed as inhibition of cell growth incubated for 48 hrs by SRB assay; type: functional, cell-based
MOLT-4 = experiment: Cytotoxicity against human MOLT-4 cells assessed as inhibition of cell growth incubated for 48 hrs by SRB assay; type: functional, cell-based
NCI-H226 = experiment: Cytotoxicity against human NCI-H226 cells assessed as inhibition of cell growth incubated for 48 hrs by SRB assay; type: functional, cell-based
[2] = Cytotoxicity against African green monkey Vero E6 cells measured after 72 hrs by MTT assay; type: toxicity, cell-based, Vero C1008; conditions: chlorocebus sabaeus
K562 = experiment: Cytotoxicity against human K562 cells assessed as inhibition of cell growth incubated for 48 hrs by SRB assay; type: functional, cell-based
ACHN = experiment: Cytotoxicity against human ACHN cells assessed as inhibition of cell growth incubated for 48 hrs by SRB assay; type: functional, cell-based
OVCAR-8 = experiment: Cytotoxicity against human OVCAR-8 cells assessed as inhibition of cell growth incubated for 48 hrs by SRB assay; type: functional, cell-based
SK-OV-3 = experiment: Cytotoxicity against human SK-OV-3 cells assessed as inhibition of cell growth incubated for 48 hrs by SRB assay; type: functional, cell-based
EKVX = experiment: Cytotoxicity against human EKVX cells assessed as inhibition of cell growth incubated for 48 hrs by SRB assay; type: functional, cell-based

## Cn1c(=O)c2c(ncn2CCC(=O)Nc2ccc(S(=O)(=O)Nc3ncccn3)cc2)n(C)c1=O
MCF7
  Activity: inactive
PC-3
  Activity: inactive
SK-MEL-28
  Activity: inactive
A549
  Activity: inactive
NCI-H23
  Activity: inactive
SR
  Activity: inactive
HCT-15
  Activity: inactive
SNB-19
  Activity: inactive
CCRF-CEM
  Activity: inactive
HCT-116
  Activity: inactive
KM12
  Activity: inactive
SF-268
  Activity: inactive
LOX IMVI
  Activity: inactive
UACC-257
  Activity: inactive
HOP-92
  Activity: inactive
Hs578Bst
  Activity: inactive
MDA-MB-435
  Activity: inactive
SK-MEL-5
  Activity: inactive
OVCAR-3
  Activity: inactive
SNB-75
  Activity: inactive
SARS-CoV-2
  IC50: 38.4 µM
RXF 393
  Activity: inactive
NCI-H522
  Activity: inactive
Malme-3M
  Activity: inactive
DU-145
  Activity: inactive
SK-MEL-2
  Activity: inactive
A498
  Activity: inactive
HOP-62
  growth inhibition (GI): 16.12%
SF-295
  Activity: inactive
OVCAR-4
  Activity: inactive
[1]
  selectivity ratio: 103
HL-60(TB)
  Activity: inactive
NCI-H460
  Activity: inactive
OVCAR-5
  Activity: inactive
T47D
  Activity: inactive
NCI-H322M
  Activity: inactive
MDA-MB-468
  Activity: inactive
U-251
  Activity: inactive
786-0
  Activity: inactive
TK-10
  Activity: inactive
HCC 2998
  Activity: inactive
M14
  Activity: inactive
SF-539
  Activity: inactive
SW-620
  Activity: inactive
HT-29
  Activity: inactive
NCI/ADR-RES
  Activity: inactive
COLO 205
  Activity: inactive
MDA-MB-231
  Activity: inactive
IGROV-1
  Activity: inactive
BT-549
  Activity: inactive
UO-31
  Activity: inactive
CAKI-1
  Activity: inactive
RPMI-8226
  Activity: inactive
SN12C
  Activity: inactive
MOLT-4
  Activity: inactive
NCI-H226
  Activity: inactive
[2]
  CC50 at 72 h: 3940 µM
K562
  Activity: inactive
ACHN
  Activity: inactive
OVCAR-8
  Activity: inactive
SK-OV-3
  Activity: inactive
EKVX
  Activity: inactive
